Data on 2 molecules can be found in paper PMC12555100, “Dextromethorphan Versus Dextrorphan: A Quantitative Comparison of Antitussive Potency Following Separate Administration of Metabolite” (Journal of Clinical Pharmacology, 2025).

Series [1] concerns cough response to citric acid challenge. Nature of the series: PK-PD effect compartment link model of cough response. It is filed as in vivo, human. The note with it: for Between‐subject variability of ke0: PKPD model. The method, then: Pharmacokinetic/pharmacodynamic analysis (PKPD) of DEX and DOR was conducted using non‐linear mixed effects modelling with Monolix software, 2024R1 (Lixoft SAS, Antony, France). The analysis followed a sequential approach, where the PK parameters of both compounds were estimated initially, and then these were used alongside the cough data to build the PK/PD model. The model components are described below:
The cough response (number of coughs) of the placebo arm of the study was described by the following equation that has been reported in a previous study[27] with some minor modifications: EPlacebo=Baselinecough×scale×k×e^−k×t in which EPlacebo is the placebo effect, BaselineCough is the number of coughs at time (t) zero (before administration of any of the drugs or placebo), scale is the constant of the magnitude of the cough response, and k is the first‐order rate constant for nonlinear suppression of the cough response and return to the baseline. The distribution of all parameters was assumed to be log normal. A constant error model was used to describe intra‐individual variability.
An effect compartment model in which ke0 (DEX) and ke0 (DOR) are the effect‐site equilibration rate constants for DEX and DOR, respectively, was used to link the plasma concentrations of DEX and DOR to the combined effect of the two moieties at the same receptor. This combined effect is described by the following equation: E=EPlacebo×1−Imax×CeDEX/IC50+CeDOR×Pot/IC50^n/1+CeDEX/IC50+CeDOR×Pot/IC50^n in which I max is the maximum antitussive effect, IC50 the concentration of drugs that results in half of the maximum effect, Pot is the relative potency of DOR to DEX and CeDEX and CeDOR are the effect compartment concentrations of DEX and DOR, respectively.[23] Log‐normal distribution model was used to describe the inter‐individual variability of the model parameters and intra‐individual variability was described by a constant error model.

The test system is the same in series [2]. Nature of the series: Citric acid cough challenge test, model-independent analysis of antitussive effect. Conditions: for Emax, maximum percentage of cough number reduction, mean: mean of 23 healthy volunteers, change relative to baseline; for Emax, maximum percentage of cough number reduction, mean / Emax, maximum percentage of cough number reduction, median: after 40.5 mg dextromethorphan hydrobromide or 44.6 mg dextrorphan-D-tartrate; for AUEC0‐24 h, mean / AUEC0‐24 h, median: area under percent reduction in cough number vs time 0-24 h; for AUEC0‐24 h, mean / TEmax, time of maximum percentage of reduction in cough number, mean / AUEC0‐24 h, median / TEmax, time of maximum percentage of reduction in cough number, median: healthy volunteers; for TEmax, time of maximum percentage of reduction in cough number, mean / TEmax, time of maximum percentage of reduction in cough number, median: after DEX or DOR administration; for Emax, maximum percentage of cough number reduction, median: median of 23 healthy volunteers; for Emax and TEmax compared between DEX, DOR and placebo arms: model-independent analysis; for Antitussive effect (AUEC0‐24 h) compared between DEX, DOR and placebo arms: model-independent pairwise analysis, Friedman test with Dunn's multiple comparison. It is filed as in vivo, human. An excerpt: The clinical trial has been performed according to the Declaration of Helsinki and was approved by the North Sheffield Research and Ethics Committee (approval number NS98/183). All participants enrolled into the clinical trial have given informed consent. Data were collected from twenty‐three healthy non‐smoker volunteers (12 male) aged 19‐51 years who took part in a double‐blind randomized placebo controlled cross‐over study. […] The exclusion criteria were respiratory tract infection or acute cough within the last 4 weeks, receiving any medication within previous 2 weeks, and any medical condition which may interfere with the study. Preceding the visit day, the volunteer was asked to fast for 8 h, abstain from alcohol, and abstain from caffeinated drinks throughout the study day. Written informed consent was obtained from all volunteers. The study was approved by the […] Research and Ethics Committee. Subjects' cough response to citric acid challenge test was studied on three separate occasions (separated at least 7 days apart) following administration of (i) placebo; (ii) 40.5 mg dextromethorphan hydrobromide; (iii) 44.6 mg of dextrorphan‐D‐tartrate. The order of treatments (placebo, DEX, and DOR) was randomized across participants using a balanced Latin square design to ensure equal distribution of sequence effects. Blood samples for PK analysis were taken periodically (at 0, 1, 2, 3, 4, 5, 6, 8, 10, 12, and 24 h post administration of DEX and DOR).
Details of the cough challenge test were described previously.[24] In summary, cough was produced by five inhalations of 3 mL 10% w/v citric acid (placed in a nebulizing chamber) over 5 min. Prior to randomization, all volunteers underwent a two‐part screening process. Volunteers who coughed between 7 and 14 times following five inhalations of a 10% citric acid solution at the first visit, were considered eligible for further screening. The second visit evaluated both interday and intraday cough response consistency. The acceptable level of variability in cough frequency was established as no more than 20% between separate days and within a single day across three separate measurements. The frequency of cough response was measured at baseline (prior to placebo or drug administration, t = −1 h) and at regular intervals up to 24 h. Cough measurements were obtained at the same time points as blood sampling.
The percent of change in cough number relative to the baseline (t = 0) was plotted against time and the maximum reduction in cough response (Emax) and its […] (TEmax) were determined. The area under the percent of reduction in cough number against time between 0 until 24 h (AUEC0‐24 h) was calculated using the trapezoidal rule. The correlation between AUEC0‐24 h and area under plasma concentration time between zero and 24 h (AUC0‐24 h) of DEX, (endogenously) formed DOR and directly administered DOR was statistically examined using Spearman rank correlation test. The Friedman test (followed by Dunn's multiple comparison) was used to compare the AUC values of DEX and DOR, as well as the AUEC values, between the different arms of the study.

A further series relates to Caco‐2 monolayers. Conditions: cited from earlier work.
For series [3] the following is noted: cited from earlier work.
The conditions of series [4]: animal study; cited from earlier work.
For series [5], the system named is antitussive effect (cough). More on the design: method as in PMID 12848776. Conditions: cited from earlier work.
[6] abbreviates: population estimate, common parameter of the combined DEX+DOR effect model.

In brackets after ≈: the same amount, converted by molar mass. Entries after “also recorded” stand apart in the source; their conditions may differ.

Broadly, the IC50 is the concentration needed to halve the response being measured.

On to `COc1ccc2c(c1)[C@]13CCCC[C@@H]1[C@H](C2)N(C)CC3` [DEX, dextromethorphan], for which the “Between‐subject variability of ke0” value in series [1] is 176 CV%. In series [1] (population estimate), the “ke0, transfer rate constant from the central to the effect compartment” value is 0.08 h⁻¹. In series [2], the “Emax, maximum percentage of cough number reduction, mean” value is listed as −46%; the “AUEC0‐24 h, mean” value is −299 %hr; the “TEmax, time of maximum percentage of reduction in cough number, mean” value is 3.9 h; the “Emax, maximum percentage of cough number reduction, median” value is −44%. In series [2], the “AUEC0‐24 h, median” value is −286 %hr; the “TEmax, time of maximum percentage of reduction in cough number, median” value is on record as 3.0 h; the “Emax and TEmax compared between DEX, DOR and placebo arms” value is listed as “no significant differences”; the “Antitussive effect (AUEC0‐24 h) compared between DEX, DOR and placebo arms” value is reported as “no significant difference”. In addition, the “Permeability, DEX compared with DOR” value in the series with Caco‐2 monolayers was “comparable permeability”.
On to `CN1CC[C@@]23CCCC[C@@H]2[C@@H]1Cc1ccc(O)cc13` [DOR, dextrorphan], for which, in series [1], the “Between‐subject variability of ke0” value is on record as 171 CV%. Also, in series [1] (model-based estimate, as percent), the “Maximum cough inhibition (Imax)” value is listed as 23%. For the same molecule, the “ke0, transfer rate constant from the central to the effect compartment” value in series [1] (population estimate) was 0.02 h⁻¹. Also, the “Relative potency of DOR to DEX” value in series [1] (population estimate, as fraction) was 0.26. In addition, in series [1] (setting [6]), the “Imax, the maximum antitussive effect (fraction of the baseline)” value was 0.23 and the “N, Hill coefficient” value was 2.8. In addition, in series [2], the “Emax, maximum percentage of cough number reduction, mean” value is reported as −45%; the “AUEC0‐24 h, mean” value was −189 %hr; the “TEmax, time of maximum percentage of reduction in cough number, mean” value was found to be 6.3 h; the “Emax, maximum percentage of cough number reduction, median” value is on record as −46%. Moreover, in series [2], the “AUEC0‐24 h, median” value is listed as −170 %hr; the “TEmax, time of maximum percentage of reduction in cough number, median” value is listed as 5.5 h; the “Emax and TEmax compared between DEX, DOR and placebo arms” value is listed as “no significant differences”; the “Antitussive effect (AUEC0‐24 h) compared between DEX, DOR and placebo arms” value is recorded as “no significant difference; also recorded: did not reveal a statistically significant difference; also recorded: failed to show any statistical difference”. Also, in series [3], the Water solubility is more than 10000 µg/mL. In series [4], the Antitussive activity entry is given as “good antitussive activity comparable to that of DEX”, the “Tolerability compared with DEX” value is recorded as “better tolerability” and the “Toxicity compared with DEX” value is reported as “lower toxicity”. Moreover, the “Permeability, DEX compared with DOR” value with Caco‐2 monolayers is on record as “comparable permeability”. Also, the “Relative potency of DOR compared to DEX” value in series [5] (modelling of quinidine interaction study, no separate DOR arm) is on record as 38%. For the same molecule, the IC50 in series [5] (total concentration of DOR (conjugated with glucuronic acid and unconjugated)) is 3.2 ng/mL (≈ 0.0124 µM).
